Measured values taken from US11857584B2, “Oncolytic virus growth method and antitumor agent” (KABUSHIKI KAISHA YAKULT HONSHA, priority 2017, dated 2024).

Columns and labels:
CVA11 = assay: Promotion of CVA11 proliferation (virus titer) in WiDr cells; type: cell-based, coxsackievirus A11; conditions: then CVA11 MOI 0.01, about 30 hours, t-test
CVB3 = assay: Promotion of CVB3 proliferation (virus titer) in WiDr cells; type: cell-based, coxsackievirus B3
[1] = Body weight change (adverse event) in WiDr-bearing nude mice; conditions: oxaliplatin 100 μg i.p. day 1; CVA11 5×10^7 PFU intratumoral days 2, 4, 6, 8, 10
Protocol: WiDr was washed with PBS and suspended in OPTI-MEM I at 5.0×10^7 cells/mL. 100 μl of the suspension containing WiDr was injected subcutaneously with a 27 G needle into the right flank of BALB/c nude mice of 6-8 weeks old. […] The tumor volume was calculated by major axis×minor axis×minor axis×0.5. The test was conducted using 5 mice in each group, and the t-test was used as the test.

AAV = assay: Promotion of AAV proliferation (virus copy number, real-time PCR) in WiDr cells; type: cell-based
Protocol: pAAV-CMV Vector (manufactured by Takara Bio Co., Ltd.) was used as AAV. pAAV-CMV Vector was prepared using AAVpro (registered trademark) Helper Free System (manufactured by Takara Bio Co., Ltd.). The collected supernatant (virus solution) was stored at −80° C.
The cultured oxaliplatin-resistant colon cancer cell line (WiDr) was suspended in DMEM medium at […]. To each well of a 96-well plate, 100 μl of the obtained cell suspension was dispensed and the cells were seeded at 3×10^5 cells/well. […] Subsequently, the plate was allowed to stand for about 24 hours at 37° C., 5% CO2, and then AAV was added thereto at a MOI of 0.01. After the plate was allowed to stand for about 30 hours at 37° C., 5% CO2, virus copy numbers were measured using AAVpro (registered trademark) Titration Kit (for Real Time PCR) Ver.2 (manufactured by Takara Bio Co., Ltd.). The t-test was used as the test.

[2] = test system: ICAM-1 (intercellular adhesion molecule 1); assay: Virus receptor expression by real-time PCR in WiDr cells, ICAM-1; type: cell-based, human; conditions: oxaliplatin 50 μM about 42 hours, or CVA11 added about 20 hours after seeding, t-test
Protocol: (§1) The cultured oxaliplatin-resistant colon cancer cell line (WiDr) was suspended in DMEM medium at 3×10^6 cells/mL. To each well of a 96-well plate, 100 μl of the obtained cell suspension was dispensed and the cells were seeded at 3×10^5 cells/well. […] Thereafter, the plate was allowed to stand for about 42 hours at 37° C., 5% CO2, and then mRNA was collected to prepare cDNA. […] The expressions of DAF (decay accelerating factor) and ICAM-1 (intercellular adhesion molecule 1) were compared by real-time PCR. The t-test was used as the test.

[3] = test system: DAF (decay accelerating factor); assay: Virus receptor expression by real-time PCR in WiDr cells, DAF; type: cell-based, human; conditions: oxaliplatin 50 μM about 42 hours, or CVA11 added about 20 hours after seeding, t-test
Protocol: as §1

## O=c1[nH]cc(F)c(=O)[nH]1 [5-FU, 5-fluorouracil]
CVA11; 5-FU 50 μM
  CVA11 virus load (virus titer): significant increase in CVA11 virus load

## CCc1c2c(nc3ccc(O)cc13)-c1cc3c(c(=O)n1C2)COC(=O)[C@]3(O)CC [SN-38, 7-ethyl-10-hydroxycamptothecin]
CVA11; SN-38 1.0, 5.0 or 50 μM
  CVA11 virus load (virus titer): significant increase in CVA11 virus load

## N.N.[Cl][Pt][Cl] [cisplatin]
CVB3; cisplatin 0.5 or 1.0 μM, then CVB3 MOI 0.01
  CVB3 virus load (virus titer): no increase in CVB3 virus load was observed

## O=C1[O][Pt]2([NH][C@@H]3CCCC[C@H]3[NH]2)[O]C1=O [oxaliplatin]
CVA11; oxaliplatin 50 μM, vs CVA11 only
  CVA11 virus load (virus titer): significant increase in CVA11 virus load
[1]
  body weight loss, compared with untreated group: no significant weight loss was observed
AAV; oxaliplatin 0.25, 0.5, 1.0 or 2.5 μM, then AAV MOI 0.01, about 30 hours, t-test
  copy number of AAV: significant, increase in the copy number of AAV
AAV; oxaliplatin 0.25 to 1.0 μM, then AAV MOI 0.01
  copy number of AAV: remarkable increase
[2]
  expression of ICAM-1 (real-time PCR): significantly increased
CVB3; oxaliplatin 1 μM, then CVB3 MOI 0.01, t-test
  CVB3 virus load (virus titer): significant increase
CVB3; oxaliplatin 0.5 or 1.0 μM, then CVB3 MOI 0.01, about 30 hours
  CVB3 virus load (virus titer): increase in CVB3 virus load was observed
[3]
  expression of DAF (real-time PCR): significantly increased
